Reference: US11691949B2, “Quinoline sulfonamide compounds and their use as antibacterial agents” (OTAGO INNOVATION LIMITED, priority 2017, dated 2023)
≈ marks a conversion by molar mass, not a printed value. Read-outs that look alike come from different tables or passages of the source.

Tests used:
Type in all cases: cell-based
S. uberis ATCC 19436 = experiment: MIC by broth microdilution, S. uberis; settings: Streptococcus uberis, read-out: S. uberis ATCC 19436 MIC
Procedure, shortened: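 The MIC against S. uberis ATCC 19436 was the lowest compound concentration showing no growth by OD600 after 24 h at 37° C. with 200 rpm shaking. Cultures grown overnight were adjusted to OD600 ~0.025 so wells held approximately 5×10^5 cfu/mL in THB. Two-fold dilution series were made at a final volume of 200 μl. Media and untreated controls were run in triplicate on each plate.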

E. coli ATCC 10596 = experiment: MIC by broth microdilution, E. coli; settings: Escherichia coli, read-out: E. coli ATCC 10536 MIC
Procedure, shortened: (§1)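 Overnight cultures diluted to ~5×10^5 cfu/mL final; S. aureus in TSB and CAMHB, E. coli in LB and CAMHB, zinc sulphate to 50 μM final as required; two-fold serial dilutions. MIC = lowest concentration with no growth by OD600 after 24 h, 37° C, 200 rpm. MBC by Miles-Misra drop-plate viability count.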

S. aureus ATCC 6538 = experiment: MIC by broth microdilution, S. aureus; settings: Staphylococcus aureus, read-out: S. aureus ATCC 6538 MIC
Procedure, shortened: as §1

[1] = ATCC 10536 / ATCC 10596, No Zinc
[2] = ATCC 10536 / ATCC 10596, Zinc (50 μM)

Row | MIC (S. uberis ATCC 19436; ATCC19436, No Zinc) | MIC (S. uberis ATCC 19436; ATCC19436, Zinc (50 μM)) | MIC (E. coli ATCC 10596; [1]) | MIC (E. coli ATCC 10596; [2]) | MIC (S. aureus ATCC 6538; ATCC6538, No Zinc) | MIC (S. aureus ATCC 6538; ATCC6538, Zinc (50 μM)) | SMILES
1 | 128 µg/mL (≈ 287 µM) | 0.25 µg/mL (≈ 0.561 µM) | > 256 µg/mL | > 256 µg/mL | 32 µg/mL (≈ 71.8 µM) | 256 µg/mL (≈ 575 µM) | O=S(=O)(Nc1cccc2ccc(CNCC(F)F)nc12)c1ccc(C(F)(F)F)cc1 [ZDR100, N-(2-(((2,2-Difluoroethyl)amino)methyl)quinolin-8-yl)-4-(trifluoromethyl)benzenesulfonamide]
2 | > 256 µg/mL | 4 µg/mL (≈ 8.47 µM) | 128 µg/mL (≈ 271 µM) | > 256 µg/mL | 64 µg/mL (≈ 135 µM) | 64 µg/mL (≈ 135 µM) | O=S(=O)(Nc1cccc2ccc(CNCc3cccnc3)nc12)c1ccc(C(F)(F)F)cc1 [ZDR101, N-(2-(((Pyridin-3-ylmethyl)amino)methyl)quinolin-8-yl)-4-(trifluoromethyl)benzenesulfonamide]
3 | > 256 µg/mL | 0.125 µg/mL (≈ 0.265 µM) | > 256 µg/mL | > 256 µg/mL | 128 µg/mL (≈ 271 µM) | > 256 µg/mL | O=S(=O)(Nc1cccc2ccc(CNCc3ccccc3)nc12)c1ccc(C(F)(F)F)cc1 [ZDR103]
4 | 64 µg/mL (≈ 139 µM) | 0.25 µg/mL (≈ 0.542 µM) | > 256 µg/mL | > 256 µg/mL | > 256 µg/mL | > 256 µg/mL | O=S(=O)(Nc1cccc2ccc(CNCc3ccco3)nc12)c1ccc(C(F)(F)F)cc1 [ZDR106, N-(2-(((Furan-2-ylmethyl)amino)methyl)quinolin-8-yl)-4-(trifluoromethyl)benzenesulfonamide]
5 | 64 µg/mL (≈ 134 µM) | 0.125 µg/mL (≈ 0.262 µM) | > 256 µg/mL | > 256 µg/mL | > 256 µg/mL | 64 µg/mL (≈ 134 µM) | O=S(=O)(Nc1cccc2ccc(CNCc3cccs3)nc12)c1ccc(C(F)(F)F)cc1 [ZDR107, N-(2-(((Thiophen-2-ylmethyl)amino)methyl)quinolin-8-yl)-4-(trifluoromethyl)benzenesulfonamide]
6 | > 256 µg/mL | 0.25 µg/mL (≈ 0.546 µM) | > 256 µg/mL | > 256 µg/mL | 64 µg/mL (≈ 140 µM) | > 256 µg/mL | O=S(=O)(Nc1cccc2ccc(CNc3ccccc3)nc12)c1ccc(C(F)(F)F)cc1 [ZDR108, N-(2-((Phenylamino)methyl)quinolin-8-yl)-4-(trifluoromethyl)benzenesulfonamide]
7 | > 256 µg/mL | 0.5 µg/mL (≈ 1.09 µM) | > 256 µg/mL | > 256 µg/mL | > 256 µg/mL | > 256 µg/mL | O=S(=O)(Nc1cccc2ccc(CNc3ccccn3)nc12)c1ccc(C(F)(F)F)cc1 [ZDR109, N-(2-((Pyridin-2-ylamino)methyl)quinolin-8-yl)-4-(trifluoromethyl)benzenesulfonamide]
8 | > 256 µg/mL | 4 µg/mL (≈ 8.47 µM) | > 256 µg/mL | > 256 µg/mL | > 256 µg/mL | > 256 µg/mL | O=S(=O)(Nc1cccc2ccc(CNCc3ccncc3)nc12)c1ccc(C(F)(F)F)cc1 [ZDR110, N-(2-(((Pyridin-4-ylmethyl)amino)methyl)quinolin-8-yl)-4-(trifluoromethyl)benzenesulfonamide]
9 | 128 µg/mL (≈ 251 µM) | 1 µg/mL (≈ 1.96 µM) | > 256 µg/mL | > 256 µg/mL | > 256 µg/mL | > 256 µg/mL | O=S(=O)(Nc1cccc2ccc(CNCCN3CCSCC3)nc12)c1ccc(C(F)(F)F)cc1 [ZDR113, N-(2-(((2-Thiomorpholinoethyl)amino)methyl)quinolin-8-yl)-4-(trifluoromethyl)benzenesulfonamide]
10 | 32 µg/mL (≈ 73.2 µM) | 2 µg/mL (≈ 4.57 µM) | > 256 µg/mL | > 256 µg/mL | 128 µg/mL (≈ 293 µM) | 8 µg/mL (≈ 18.3 µM) | NC(=O)N/N=C/c1ccc2cccc(NS(=O)(=O)c3ccc(C(F)(F)F)cc3)c2n1 [ZDR118, (E)-2-((8-((4-(Trifluoromethyl)phenyl)sulfonamido)quinolin-2-yl)methylene)hydrazine-1-carboxamide]
11 | > 256 µg/mL | 0.125 µg/mL (≈ 0.305 µM) | > 256 µg/mL | > 256 µg/mL | > 256 µg/mL | > 256 µg/mL | CO/N=C/c1ccc2cccc(NS(=O)(=O)c3ccc(C(F)(F)F)cc3)c2n1 [ZDR126, (E)-N-(2-((Methoxyimino)methyl)quinolin-8-yl)-4-(trifluoromethyl)benzenesulfonamide]
